Drawing on ChEMBL document CHEMBL1240533, “Selectivity and potency of cyclin-dependent kinase inhibitors” (AAPS J, 2006), this text covers IC50 for 15 compounds.

Test [1] has as its target Cyclin-dependent kinase 4 (Homo sapiens, UniProt P11802).
Test [2] concerns the target Cyclin-dependent kinase 2/cyclin A (Homo sapiens, UniProt P24941). In kind it is protein-complex assay.
Description: Inhibition of CDK2/cyclin A
For test [3], the target named is Cyclin-dependent kinase 5 (Homo sapiens, UniProt Q00535).
Test [4] addresses Cyclin-dependent kinase 6 (Homo sapiens, UniProt Q00534).

Sequence of Cyclin-dependent kinase 4 (P11802 whole entry): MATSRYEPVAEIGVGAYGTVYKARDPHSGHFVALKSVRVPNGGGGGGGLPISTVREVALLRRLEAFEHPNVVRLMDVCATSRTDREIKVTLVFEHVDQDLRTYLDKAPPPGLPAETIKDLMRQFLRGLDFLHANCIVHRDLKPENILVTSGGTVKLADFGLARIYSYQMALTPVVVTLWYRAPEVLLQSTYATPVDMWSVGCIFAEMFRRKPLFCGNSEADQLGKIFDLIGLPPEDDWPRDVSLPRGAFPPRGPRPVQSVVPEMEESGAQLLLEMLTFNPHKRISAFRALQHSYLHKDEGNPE
Sequence of Cyclin-dependent kinase 5 (Q00535 whole entry): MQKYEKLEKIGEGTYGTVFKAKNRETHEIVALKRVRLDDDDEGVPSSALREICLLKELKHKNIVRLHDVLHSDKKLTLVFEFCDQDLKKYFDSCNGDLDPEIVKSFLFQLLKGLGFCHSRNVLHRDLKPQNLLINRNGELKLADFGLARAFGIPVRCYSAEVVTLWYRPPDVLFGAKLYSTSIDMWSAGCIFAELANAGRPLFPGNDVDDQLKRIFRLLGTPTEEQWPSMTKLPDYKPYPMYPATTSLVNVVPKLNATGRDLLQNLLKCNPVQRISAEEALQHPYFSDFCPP
Sequence of Cyclin-dependent kinase 6 (Q00534 whole entry): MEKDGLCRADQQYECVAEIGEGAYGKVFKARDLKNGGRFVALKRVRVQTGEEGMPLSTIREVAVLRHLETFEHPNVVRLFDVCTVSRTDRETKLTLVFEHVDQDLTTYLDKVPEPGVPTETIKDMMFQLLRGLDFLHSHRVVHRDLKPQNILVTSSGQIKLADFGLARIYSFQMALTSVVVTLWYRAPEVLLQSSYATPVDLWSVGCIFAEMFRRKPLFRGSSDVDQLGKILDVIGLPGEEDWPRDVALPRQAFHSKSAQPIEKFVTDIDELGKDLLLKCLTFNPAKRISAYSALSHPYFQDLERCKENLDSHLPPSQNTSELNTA

Turning to `O=C(Cc1ccc2ccccc2c1)Nc1cc(C2CC2)n[nH]1`, in test [1], the IC50 (as a rule, the concentration that gives 50% inhibition) is greater than 10 µM.

Consider `O=C1C(c2c(O)[nH]c3ccc(S(=O)(=O)O)cc23)=Nc2ccccc21`, for which, in test [1], the IC50 worked out at 0.2 µM.

`CC(=O)N[C@@H](CCCN=C(N)N)C(=O)N[C@@H](CCCN=C(N)N)C(=O)N[C@@H](CC(C)C)C(=O)N[C@@H](CC(N)=O)C(=O)N[C@@H](Cc1ccccc1)C(N)=O`: the IC50 in test [2] was greater than 50 µM.

In the case of `Cc1ccc(F)c(Nc2nccc(-c3ccc(S(N)(=O)=O)cc3)n2)c1`, in test [1], the half-inhibitory concentration (IC50) worked out at 0.15 µM.

In turn, `CCCCOc1c(C(=O)c2c(F)cc(C)cc2F)ccc2[nH]ncc12` registered an IC50 in test [1] of 2.7 µM.

`Nc1nc2ccc(C(=O)c3c(F)cccc3Cl)cc2n1Cc1c(F)cccc1F`: the IC50 in test [1] is 0.81 µM.

For the compound `O=C(Nc1cc(C2CCC2)c[nH]1)Nc1cccc2ccncc12`, the IC50 in test [3] came out at 0.005 µM.

`CN(C)CCNS(=O)(=O)c1ccc(Nc2cccc(-c3cnc4ccccn34)c2)cc1`: in test [1], the IC50 worked out at 0.26 µM.

For `CC1(C)CC2(C)Nc3cc(-c4ccc5c(c4)NC4(C)CC(C)(C)NC(=S)N54)ccc3N2C(=S)N1` (stereo unspecified), the IC50 in test [3] was determined as 25 µM.

In the case of `CCNc1cc(N[C@H]2CC[C@@H](O)CC2)nc(Nc2ccc3c(ccn3Cc3ccccc3)c2)n1`, the IC50 stood at 5.6 µM in test [4] and 25 µM in test [3].

The compound `CC(C)(C)Nc1nc(C(F)(F)F)nc2ccc(Nc3ccccc3)cc12` returned an IC50 in test [1] greater than 2.1 µM.

In test [1], `O=C(Nc1ccccn1)Nc1cccc2c1[C@H]1CCCN1C2=O` displayed an IC50 of 0.002 µM.

In turn, `Nc1nc(N)c(N=O)c(=O)[nH]1` showed an IC50 in test [1] of 0.23 µM.

On to `COc1ccc(-c2[nH]nc3c2C(=O)c2c(NC(=O)NNC(=O)c4ccc(O)cc4)cccc2-3)cc1`, for which, in test [3], inhibition was half-maximal at 0.005 µM (IC50).

`O=C1Cc2c([nH]c3ccc([N+](=O)[O-])cc23)-c2ccccc2N1` [ALSTERPAULLONE] showed an IC50 in test [1] greater than 10 µM.
